Measurements published in patent US8404664B2, “Phosphonated Rifamycins and uses thereof for the prevention and treatment of bone and joint infections” (Targanta Therapeutics, Inc., priority 2005, dated 2013).
≈ marks a conversion by molar mass, not a printed value. Where “and” joins values, the source holds several entries; their conditions need not be identical. Identical values can stand only once.

Assays:
S. aureus ATCC 13709 [1] = test: Antibacterial susceptibility (MIC), NCCLS broth microdilution; format: cell-based; conditions: for Antibacterial activity (in words, summary of Table 1): summary over the strains of Table 1; for MIC: Staphylococcus aureus, ATCC13709, read-out: Minimum inhibitory concentration, S. aureus ATCC 13709
Experimental: (§1) Susceptibility of S. aureus strains to the known antibiotics and synthesized compounds was determined by following the guidelines set by NCCLS (M26-A). Compounds were diluted two-fold serially in DMSO and transferred to cation-adjusted Mueller Hinton broth (CAMHB; Becton Dickinson). 50 μL of compounds diluted in CAMHB was mixed with 100 μL of bacteria diluted in CAMHB in 96-well microtiter plates. The final concentration of micro-organisms in the assay was 5×10^5 c.f.u. per mL and the final concentration of DMSO in the assay was 1.25%. Assays were set up in duplicate and incubated at 37° C. for 18 h. The lowest concentration of compound that inhibited visible growth was reported as the minimum inhibitory concentration (MIC).

[2] = tested on: S. aureus ATCC 43300 (Fluoroquinolone sensitive MRSA); test: as above; format: cell-based; conditions: for MIC: Staphylococcus aureus, read-out: Minimum inhibitory concentration, S. aureus ATCC 43300
Experimental: as §1

[3] = tested on: S. aureus BK85 (Fluoroquinolone resistant MRSA); test: as above; format: cell-based; conditions: for MIC: Staphylococcus aureus, read-out: Minimum inhibitory concentration, S. aureus BK85
Experimental: as §1

S. aureus RN4220 = test: as above; format: cell-based; conditions: CAMHB, 37° C., 18 h; for MIC: Staphylococcus aureus, RN4220, read-out: Minimum inhibitory concentration, S. aureus RN4220
Experimental: as §1

[4] = tested on: S. aureus ATCC 13709 Novobiocin and Rifampicin resistant variant; test: microbe, parasite or virus in culture; format: cell-based; conditions: for Minimum inhibitory concentration, S. aureus ATCC 13709 variant: Novobiocin and Rifampicin resistant variant
Experimental: as §1

S. aureus ATCC 13709 [5] = test: Antibacterial susceptibility (MIC) in the presence of serum; format: cell-based; conditions: for MIC: Staphylococcus aureus, ATCC13709, 18 h
Experimental: as §1
Susceptibility testing experiments were also carried out in the presence of serum.
These experiments were carried out similar to the susceptibility testing with the following modifications. 75 μL of compounds diluted in CAMHB was mixed with 75 μL of bacteria diluted in 100% serum from any given source (commercial pooled mouse serum (MS) and human serum (HS), Equitech-Bio Inc.) or diluted in 8% purified human serum albumin (HSA) (Calbiochem). The final concentration of animal serum in the assay was 50% and the final concentration of purified human serum albumin in the assay was 4%; the concentrations of all other components were identical to those described for susceptibility testing.

[6] = tested on: E. coli LBB925 (tolC mutant); test: Antibacterial susceptibility (MIC), NCCLS broth microdilution; format: cell-based; conditions: for Minimum inhibitory concentration, E. coli LBB925: tolC mutant; for MIC: Escherichia coli, read-out: Minimum inhibitory concentration, E. coli LBB925
[7] = Regeneration of drug from bone powder-bound prodrug; format: in vitro ADME; conditions: for % Conversion of bone-bound prodrug to parent drug: 24 h incubation, 37° C.
Experimental: Amounts of parent drug “regenerated” from the phosphonated prodrug were measured as follows. Washed bone powder-bound prodrugs from the above experiment were resuspended in 400 μL PBS+2% DMSO or in 400 μL 50% (v/v in PBS+2% DMSO) human or rat serum. The suspension was incubated overnight at 37° C., centrifuged at 13,000 rpm for 2 min and the supernatant was recovered. The amount of regenerated parent drug in the supernatant was determined by measurements using the microbiological assay that was previously described for the prodrugs themselves. The amount of prodrug was deduced from standard curves of known amounts of parent drug that were used as reference for each experiment.

[8] = tested on: S. aureus ATCC 13709 Novobiocin resistant mutant (bone infection); test: Prophylactic efficacy in rat model of S. aureus bone infection; format: in vivo; conditions: rat tibia 24 h postinfection
Experimental: Specifically, a spontaneous Novobiocin resistant mutant strain of S. aureus ATCC 13709 (a clinical osteomyelitis isolate), was grown overnight at 37° C. in brain heart infusion broth (BHIB). After 16 h of growth, cells were subcultured into fresh BHIB and incubated for 4 to 5 h at 37° C. The cells were washed twice with phosphate-buffered saline (PBS) and resuspended in BHIB supplemented with 10% (vol./vol.) fetal bovine serum at a density of approximately 10^10 colony forming units (CFU)/ml (based upon turbidimetry). The suspension was aliquoted and a portion was used to check the CFU count. The culture was stored frozen (−80° C.) and was used without subculture. For use as an inoculum the culture was thawed, diluted in PBS and kept in an ice bath until it was used.
Animals were infected as described by O'Reilly et al. (Antimicrobial Agents and Chemotherapy (1992), 36(12): 2693-97) to generate the bone infection. Female CD rats (age, 57 to 70 days; n=5/group; Charles River, St-Constant, Canada) were anaesthetized by isofluorane before and during the surgery. Following complete induction of anesthesia, the rat was placed ventral side up and hair was shaved from the surgical site. The skin over the leg was cleaned and disinfected (proviodine-ethanol 70%). A longitudinal incision below the knee joint was made in the sagital plane. The incision was made over the bone below the “knee joint” (tibia head or condyle) but not completely extending to the ankle. A high speed drill fitted with a 2 mm bulb bit was used to drill a hole into the medullar cavity of the tibia. Rats were injected intra-tibially with 0.05 ml 5% sodium morrhuate (sclerosing agent) and then with 0.05 ml of S. aureus suspension (ca. 2×10^7 CFU/rat). The hole was sealed by applying a small amount of dry dental cement which immediately absorbs fluids and adheres to the site. The wound was closed using 3 metal skin clips. Moxifloxacin (as a positive control) was injected once at 10 mg/kg intravenously 1 h postinfection in saline, while the Rifamycin derived prodrugs (prepared in 0.9% saline) were injected at the dose indicated in Table 3 as a single intravenous bolus at different time points prior to the infection.
Infected rats were sacrificed by CO2 asphyxiation 24 h postinfection to monitor the bacterial CFU count. Infected tibiae were removed, dissected free of soft tissue, and weighed. The bones were ground, resuspended in 5 ml 0.9% NaCl, serially diluted and processed for quantitative cultures. For compounds 50, 68 and 81, 1 ml of the 0.9% NaCl solution was added to 50 mg of charcoal before serial dilutions. Treatment efficacy was measured in terms of Log viable bacteria (Log CFU per gram of bone). […] The limit of detection is 2 Log CFU. […] Differences were considered significant when the P value was <0.05 when comparing treated infected animals to the untreated infected ones. The doses used, the amount of time separating the treatment from the time of infection and the treatment outcomes are shown in Table 3.

[9] = read-out: Minimum inhibitory concentration, S. aureus ATCC 13709 + 50% Human Serum
[10] = read-out: Minimum inhibitory concentration, S. aureus ATCC 13709 + 50% Mouse Serum
[11] = read-out: Minimum inhibitory concentration, S. aureus ATCC 13709 + 50% Rat Serum

Row | Compound | Minimum inhibitory concentration, S. aureus ATCC 13709 (S. aureus ATCC 13709 [1]) [µg/mL] | Antibacterial activity (in words, summary of Table 1) (S. aureus ATCC 13709 [1]) | Minimum inhibitory concentration, S. aureus ATCC 43300 [2] [µg/mL] | Minimum inhibitory concentration, S. aureus BK85 [3] [µg/mL] | Minimum inhibitory concentration, S. aureus RN4220 (S. aureus RN4220) [µg/mL] | Activity against the Rifampicin resistant variant of S. aureus ATCC13709 (in words) [4] | Minimum inhibitory concentration, S. aureus ATCC 13709 variant [4] [µg/mL] | Minimum inhibitory concentration, S. aureus ATCC 13709 + 50% Human Serum (S. aureus ATCC 13709 [5]) [µg/mL] | Minimum inhibitory concentration, S. aureus ATCC 13709 + 50% Mouse Serum (S. aureus ATCC 13709 [5]) [µg/mL] | Minimum inhibitory concentration, S. aureus ATCC 13709 + 50% Rat Serum (S. aureus ATCC 13709 [5]) [µg/mL] | Minimum inhibitory concentration, E. coli LBB925 [6] [µg/mL] | MIC (S. aureus ATCC 13709 [1]) [µg/mL] | MIC [3] [µg/mL] | MIC (S. aureus ATCC 13709 [5]; [9]) [µg/mL] | MIC (S. aureus ATCC 13709 [5]; [10]) [µg/mL] | MIC (S. aureus ATCC 13709 [5]; [11]) [µg/mL] | MIC [6] [µg/mL] | MIC [2] [µg/mL] | MIC (S. aureus RN4220) [µg/mL] | also measured
1 | CCN(CC)CC.CCN(CC)CC.CO[C@H]1/C=C/O[C@@]2(C)Oc3c(C)c(O)c4c(c3C2=O)C2=NC3(CCN(CC(C)C)CC3)NC2=C(NC(=O)/C(C)=C\C=C\[C@H](C)[C@H](OC(=O)CCCOC(=O)CCC(=O)NC(P(=O)(O)O)P(=O)(O)O)[C@@H](C)[C@@H](O)[C@@H](C)[C@H](OC(C)=O)[C@@H]1C)C4=O [Compound 54, 21-O-(4-((3-(bisphosphonomethyl)carbamoyl)propanoyloxy)butanoyl)-1′,4-didehydro-1-deoxy-1,4-dihydro-5′-(2-methylpropyl)-1-oxorifamycin XIV] | 64 | near complete loss of activity | 64 | 64 | 64 | complete lack of activity | >128 | >128 | >128 | >128 | >128 | – | – | – | – | – | – | – | – | Impact of serum on the MICs (in words) (S. aureus ATCC 13709 [5]): no impact
2 | CO[C@H]1/C=C/O[C@@]2(C)Oc3c(C)c(O)c4c(=O)c(c5oc6cc(N7CCNCC7)cc(O)c6nc-5c4c3C2=O)NC(=O)/C(C)=C\C=C\[C@H](C)[C@H](O)[C@@H](C)[C@@H](O)[C@@H](C)[C@H](OC(C)=O)[C@@H]1C [Compound 69, 1′,4-Didehydro-1-deoxy-1,4-dihydro-3′-hydroxy-5′-[1-piperazinyl]-1-oxorifamycin VIII] | – | – | – | – | – | – | – | – | – | – | – | 0.00048 (≈ 0.542 nM) | 0.00024 (≈ 0.271 nM) | 0.0019 | 0.0019 | 0.0019 | 4 (≈ 4520 nM) | – | – | –
3 | CO[C@H]1/C=C/O[C@@]2(C)Oc3c(C)c(O)c4c(O)c(c(/C=N/N5CCN(C)CC5)c(O)c4c3C2=O)NC(=O)/C(C)=C\C=C\[C@H](C)[C@H](O)[C@@H](C)[C@@H](O)[C@@H](C)[C@H](OC(C)=O)[C@@H]1C [Rifampicin, reference compound] | – | – | – | – | – | – | – | – | – | – | – | 0.008 (≈ 9.72 nM) | 0.008 (≈ 9.72 nM) | 0.062 | 0.125 | 0.125 | 8 (≈ 9720 nM) | 0.008 (≈ 9.72 nM) | 0.008 (≈ 9.72 nM) | MIC ([4]; Staphylococcus aureus, ATCC13709, read-out: Minimum inhibitory concentration, S. aureus ATCC 13709 variant): > 128 µg/mL
4 | CCN(CC)CC.CCN(CC)CC.CO[C@H]1/C=C/O[C@@]2(C)Oc3c(C)c(O)c4c(=O)c(c5oc6cc(N7CCN(CC(C)C)CC7)cc(O)c6nc-5c4c3C2=O)NC(=O)/C(C)=C\C=C\[C@H](C)[C@H](OC(=O)CCC(=O)NCCC(=O)NC(P(=O)(O)O)P(=O)(O)O)[C@@H](C)[C@@H](O)[C@@H](C)[C@H](OC(C)=O)[C@@H]1C [Compound 78, 21-O-(3-(2-((bisphosphonomethyl)carbamoyl)ethylcarbamoyl)propanoyl)-1′,4-Didehydro-1-deoxy-1,4-dihydro-3′-hydroxy-5′-[4-(2-methylpropyl)-1-piperazinyl]-1-oxorifamycin VIII] | 8 | near complete loss of activity | 8 | 16 | 16 | complete lack of activity | >128 | >128 | >128 | >128 | >128 | – | – | – | – | – | – | – | – | Regeneration of parent drug once bound to bone (in words) [7]: not able to regenerate; % Conversion of bone-bound prodrug to parent drug ([7]; 50% Rat Serum): 0.01%; % Conversion of bone-bound prodrug to parent drug ([7]; PBS): <lod; Impact of the medium on the rate of regeneration of parent drug (in words) ([7]; serum compared to PBS): significant acceleration
5 | CO[C@H]1/C=C/O[C@@]2(C)Oc3c(C)c(O)c4c(=O)c(c5oc6cc(N7CCN(CCO)CC7)cc(O)c6nc-5c4c3C2=O)NC(=O)/C(C)=C\C=C\[C@H](C)[C@H](O)[C@@H](C)[C@@H](O)[C@@H](C)[C@H](OC(C)=O)[C@@H]1C [Compound 56, 1′,4-Didehydro-1-deoxy-1,4-dihydro-3′-hydroxy-5′-[4-(2-hydroxyethyl)-1-piperazinyl]-1-oxorifamycin VIII] | – | – | – | – | – | – | – | – | – | – | – | 0.00025 (≈ 0.269 nM) | – | 0.001 | 0.002 | 0.002 | 8 (≈ 8610 nM) | 0.00025 (≈ 0.269 nM) | 0.00025 (≈ 0.269 nM) | Measured bacterial titer ([8]; single dose 20 mg/kg parent drug equivalent, 2 days prior to infection): 3.61 ± 1.57 Log CFU/g of bone
6 | COc1c(N2C[C@@H]3CCCN[C@@H]3C2)c(F)cc2c(=O)c(C(=O)O)cn(C3CC3)c12 [Moxifloxacin, reference compound] | – | – | – | – | – | – | – | – | – | – | – | – | – | – | – | – | – | – | – | Measured bacterial titer, positive control ([8]; 10 mg/kg intravenously once, 1 h postinfection, 10 mg/kg): 2.36 ± 0.21 Log CFU/g of bone and 2.53 ± 0.39 Log CFU/g of bone and 2.59 ± 0.56 Log CFU/g of bone and 2.46 ± 0.52 Log CFU/g of bone and 2.56 ± 0.64 Log CFU/g of bone and 2.20 ± 0.33 Log CFU/g of bone and 2.32 ± 0.33 Log CFU/g of bone and 2.06 ± 0.04 Log CFU/g of bone
